{"source": "patent US20090312364A1", "about": "“NOVEL CHROMEN-2-ONE DERIVATIVES AND THEIR USE AS MONOAMINE NEUROT[…]-UPTAKE INHIBITORS” (NeuroSearch A/S, priority 2006, published 2009)", "format_in_all_cases": "biochemical", "key": {"[1]": {"target": "T1, noradrenaline (NA) reuptake in synaptosomes (Rattus norvegicus, UniProt Q9WTR4)", "T1 construct": "in synaptosomes as described in WO 97/16451; from tissue", "T1 sequence (Q9WTR4 1-597)": "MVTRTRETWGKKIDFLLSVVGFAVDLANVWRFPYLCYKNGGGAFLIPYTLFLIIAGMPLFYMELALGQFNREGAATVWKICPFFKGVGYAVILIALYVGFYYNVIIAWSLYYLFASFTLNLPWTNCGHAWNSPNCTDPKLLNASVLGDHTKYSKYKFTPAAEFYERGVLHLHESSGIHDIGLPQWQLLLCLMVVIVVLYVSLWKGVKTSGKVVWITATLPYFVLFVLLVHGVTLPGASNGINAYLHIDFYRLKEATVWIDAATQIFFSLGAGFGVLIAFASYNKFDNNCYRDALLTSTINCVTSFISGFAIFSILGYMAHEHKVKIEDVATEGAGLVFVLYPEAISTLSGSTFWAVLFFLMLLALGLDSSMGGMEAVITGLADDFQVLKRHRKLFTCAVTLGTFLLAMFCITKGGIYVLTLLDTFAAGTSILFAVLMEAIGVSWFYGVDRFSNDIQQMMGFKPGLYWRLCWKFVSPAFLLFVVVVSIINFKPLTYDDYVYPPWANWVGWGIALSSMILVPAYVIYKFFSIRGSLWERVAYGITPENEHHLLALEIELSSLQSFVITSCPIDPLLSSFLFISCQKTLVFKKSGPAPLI", "assay": "In vitro inhibition of NA reuptake in synaptosomes", "conditions": "3H-NA, as described in WO 97/16451, read-out: NA-uptake IC50", "method": "(§1) A number of compounds were tested for their ability to inhibit the reuptake of the monoamine neurotransmitters dopamine (DA), noradrenaline (NA) and serotonine (5-HT) in synaptosomes as described in WO 97/16451.\n(§2) The test values are given as IC50 (the concentration (μM) of the test substance which inhibits the specific binding of ^3H-DA, ^3H-NA, or ^3H-5-HT by 50%)."}, "[2]": {"target": "T2, serotonine (5-HT) reuptake in synaptosomes (Rattus norvegicus, UniProt P31652)", "T2 construct": "in synaptosomes as described in WO 97/16451; from tissue", "T2 sequence (P31652 whole entry)": "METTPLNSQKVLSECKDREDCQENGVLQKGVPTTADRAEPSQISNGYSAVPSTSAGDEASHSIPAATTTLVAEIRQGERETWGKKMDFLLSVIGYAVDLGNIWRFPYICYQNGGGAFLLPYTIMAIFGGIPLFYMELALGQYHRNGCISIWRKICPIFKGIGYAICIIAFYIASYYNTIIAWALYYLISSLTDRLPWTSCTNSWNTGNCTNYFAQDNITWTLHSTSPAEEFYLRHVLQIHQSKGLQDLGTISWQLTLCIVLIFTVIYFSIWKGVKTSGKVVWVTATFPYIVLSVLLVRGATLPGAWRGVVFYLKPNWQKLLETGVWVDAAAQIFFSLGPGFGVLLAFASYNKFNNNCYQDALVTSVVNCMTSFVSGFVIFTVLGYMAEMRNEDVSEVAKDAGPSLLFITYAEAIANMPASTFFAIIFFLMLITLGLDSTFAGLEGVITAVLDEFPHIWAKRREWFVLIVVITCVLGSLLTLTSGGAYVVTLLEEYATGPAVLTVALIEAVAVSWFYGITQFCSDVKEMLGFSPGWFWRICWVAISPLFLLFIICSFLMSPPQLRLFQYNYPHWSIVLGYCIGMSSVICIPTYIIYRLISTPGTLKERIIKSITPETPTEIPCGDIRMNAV", "assay": "In vitro inhibition of 5-HT reuptake in synaptosomes", "conditions": "3H-5-HT, as described in WO 97/16451, read-out: 5-HT-uptake IC50", "method": "as §1, §2"}, "[3]": {"target": "T3, dopamine (DA) reuptake in synaptosomes (Rattus norvegicus, UniProt P23977)", "T3 construct": "in synaptosomes as described in WO 97/16451; from tissue", "T3 sequence (P23977 whole entry)": "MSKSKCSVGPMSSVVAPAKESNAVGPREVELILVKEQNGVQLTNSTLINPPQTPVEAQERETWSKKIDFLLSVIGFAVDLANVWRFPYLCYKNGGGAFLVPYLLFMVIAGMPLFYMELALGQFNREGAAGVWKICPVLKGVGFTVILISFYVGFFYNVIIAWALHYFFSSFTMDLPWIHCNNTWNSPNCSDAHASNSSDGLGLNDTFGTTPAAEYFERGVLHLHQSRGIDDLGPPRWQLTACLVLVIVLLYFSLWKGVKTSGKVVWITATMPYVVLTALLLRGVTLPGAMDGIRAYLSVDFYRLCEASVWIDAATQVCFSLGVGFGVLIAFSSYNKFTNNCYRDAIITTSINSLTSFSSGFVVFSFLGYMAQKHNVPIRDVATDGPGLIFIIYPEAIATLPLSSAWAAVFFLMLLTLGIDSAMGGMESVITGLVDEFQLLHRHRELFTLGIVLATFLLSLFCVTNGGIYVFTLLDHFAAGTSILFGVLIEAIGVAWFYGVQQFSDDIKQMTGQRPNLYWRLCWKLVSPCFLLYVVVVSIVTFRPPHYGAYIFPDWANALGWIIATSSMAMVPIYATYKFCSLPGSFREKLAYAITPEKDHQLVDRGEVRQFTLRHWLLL", "assay": "In vitro inhibition of DA reuptake in synaptosomes", "conditions": "3H-DA, as described in WO 97/16451, read-out: DA-uptake IC50", "method": "as §1, §2"}}, "note": "Structures can show the parent of a compound that is named as a salt.", "data": [{"compound": "O=c1oc2cc(O[C@@H]3C[C@H]4CC[C@@H](C3)N4)ccc2cc1-c1ccccc1", "note": "[1st Compound of Example 2, exo-7-[(1S,3S,5R)-(8-Aza-bicyclo[3.2.1]oct-3-yl)oxy]-3-phenyl-chromen-2-one hydrochloric acid salt]", "values": [{"measurement": "IC50", "setting": "[1]", "value": 19, "unit": "nM"}, {"measurement": "IC50", "setting": "[2]", "value": 6, "unit": "nM"}, {"measurement": "IC50", "setting": "[3]", "value": 48, "unit": "nM"}]}, {"compound": "O=c1cc(-c2ccccc2)c2ccc(O[C@@H]3C[C@H]4CC[C@@H](C3)N4)cc2o1", "note": "[4th Compound of Example 2, exo-7-[(1S,3S,5R)-(8-Aza-bicyclo[3.2.1]oct-3-yl)oxy]-4-phenyl-chromen-2-one hydrochloric acid salt]", "values": [{"measurement": "IC50", "setting": "[1]", "value": "> 1000", "unit": "nM"}, {"measurement": "IC50", "setting": "[2]", "value": 29, "unit": "nM"}, {"measurement": "IC50", "setting": "[3]", "value": "> 1000", "unit": "nM"}]}, {"compound": "O=c1oc2cc(O[C@@H]3C[C@H]4CC[C@@H](C3)N4)ccc2cc1-c1cccc(F)c1", "note": "[6th Compound of Example 2, exo-7-[(1S,3S,5R)-(8-Aza-bicyclo[3.2.1]oct-3-yl)oxy]-3-(3-fluoro-phenyl)-chromen-2-one hydrochloric acid salt]", "values": [{"measurement": "IC50", "setting": "[1]", "value": 26, "unit": "nM"}, {"measurement": "IC50", "setting": "[2]", "value": 5.8, "unit": "nM"}, {"measurement": "IC50", "setting": "[3]", "value": 28, "unit": "nM"}]}]}
